Data published in publication PMC7453296 (Journal of Pesticide Science, 2020).

What was measured:
[1] = target: HcbA3C-His (HcbA3, NADH:FMN oxidoreductase); experiment: fluorescence quenching titration of flavin; type: binding, Nocardioides sp. PD653; details: 50 nM FMN, 20 mM KPi pH 7.5, 20°C; oxidized FMN
[2] = system: HcbA3C-His (HcbA3, NADH:FMN oxidoreductase); experiment: NADH oxidation at […] nm, steady-state ping-pong fit; type: biochemical, Nocardioides sp. PD653; details: 20 mM KPi pH 7.5, 20°C, ping-pong bi-bi

Q: With `Cc1cc2nc3c(=O)[nH]c(=O)nc-3n(C[C@H](O)[C@H](O)[C@H](O)COP(=O)(O)O)c2cc1C` [FMN] as the compound, how does the Kd [1] read?
A: Its Kd is 0.75 ± 0.17 µM.

Q: What about the Km ([2]; NADH 10–120 µM) of the same compound?
A: Its Km is 4.43 ± 0.69 µM.

Q: For `NC(=O)C1=CN([C@@H]2O[C@H](COP(=O)(O)OP(=O)(O)OC[C@H]3O[C@@H](n4cnc5c(N)ncnc54)[C@H](O)[C@@H]3O)[C@@H](O)[C@H]2O)C=CC1` [NADH], which Km ([2]; FMN 1–8 µM) is on record?
A: Its Km is 51.7 ± 11.6 µM.
